Experiments:
Solubility in water = type: physicochemical; details: sodium salt, white powder as lyophilized
[1] = Stability during desalting on Sephadex G-10; type: physicochemical; details: pooled fractions at pH 4.1; A308/A260 ratio of 0.76
Method: Fractions 112 through 130 containing 890A2, are concentrated under reduced pressure to 5.5 ml. and the concentrate is applied to a column (2.15 × 70 cm.) of Sephadex G-10, and eluted with deionized water at a flow rate of 1 ml. per minute. Fractions of 2.85 ml. each are collected. The bioactivity as determined by assay against Salmonella gallinarum MB1287 appears in fractions 60 through 98. Fractions 78 through 90 have the highest A308 /A260 ratios, and these are pooled for lyophilization. The pH of the pooled fractions is 4.1, and is adjusted to 7.8 by addition of 8 μl of 1M ammonia.

[2] = system: Salmonella schottmuellari MB-2837; experiment: In vivo protection of intraperitoneally infected mice; details: ip, at the time of infection and again 6 hours later; sample of 59 units/ml.; survival data of the seventh day
Method: In determining the in vivo activity, antibiotic 890A2 is dissolved in 0.15M NaCl, 0.01M sodium phosphate, pH 7.0, and diluted with water to provide five fourfold concentrations of drug for testing. Female white Swiss mice, averaging about 21 g. in weight, were infected intraperitoneally with the test organism suspended in broth. The numbers of organisms injected were determined by standard plate-count techniques. At the time of infection and again 6 hours later, certain of the mice were treated intraperitoneally with the antibiotic. Five mice were used for each concentration of drug tested. An additional two mice, not infected, were treated with the antibiotic to determine whether the amount of agent injected was toxic. Controls of five mice for each of several dilutions of the infecting culture were included in each test in order to calculate the numbers of organisms that were lethal to 50% of the infected, untreated mice (LD50). This calculation was made using survival data of the seventh day after infection, at which time the amount of drug that should protect 50% of the infected mice (ED50) also was calculated.
All animals receiving this challenge and not treated with antibiotic died within 48 hours of the infection. The efficacy of antibiotic 890A2, having a potency of 59 units/ml., against Salmonella schottmuellari MB-2837 is set forth below: […]

CC(=O)NC=CSC1=C(C(=O)O)N2C(=O)C(C(C)O)C2C1 (stereo not drawn) [Antibiotic 890A2]
solubility in water (Solubility in water): very soluble in water | stability during Sephadex G-10 desalting [1]: substantial degradation | ED50 × 2 doses [2]: 19 Units

Reference: patent US4141986A, “Antibiotics 890A2 and 890A5” (Merck & Co., Inc., priority 1977, dated 1979)
